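Dose response: 5 concentrations. Exposure: 48 h. Format: 96-well plates. Endpoint: linear interpolation; highest concentration if not reached. GI50 marks 50% less growth.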 Active and inactive are the calls of the source. No stated cut-off is given here; in the data, active = GI50 up to about 1.1 µM and inactive = higher.
Experiments:
Assay in all cases: DTP human tumour cell line panel, 48 h
NCI-H522 = tested on: NCI-H522
UACC-62 = tested on: UACC-62
TK-10 = tested on: TK-10
CAKI-1 = tested on: CAKI-1
RPMI-8226 = tested on: RPMI-8226
NCI-H23 = tested on: NCI-H23
SW-620 = tested on: SW-620
786-0 = tested on: 786-0
NCI-H226 = tested on: NCI-H226
A498 = tested on: A498
MOLT-4 = tested on: MOLT-4
HCT-116 = tested on: HCT-116
U-251 = tested on: U-251
UO-31 = tested on: UO-31
HOP-92 = tested on: HOP-92
SR = tested on: SR
MCF7 = tested on: MCF7
PC-3 = tested on: PC-3

SMILES	GI50 (NCI-H522)	GI50 (UACC-62)	GI50 (TK-10)	GI50 (CAKI-1)	GI50 (RPMI-8226)	GI50 (NCI-H23)	GI50 (SW-620)	GI50 (786-0)	GI50 (NCI-H226)	GI50 (A498)	GI50 (MOLT-4)	GI50 (HCT-116)	GI50 (U-251)	GI50 (UO-31)	GI50 (HOP-92)	GI50 (SR)	GI50 (MCF7)	GI50 (PC-3)
CC(C)(CN1CCCCC1)C(=O)CC(SCCN)c1ccc(Cl)cc1 (stereo unspecified)	2.18 µM (inactive)	1.65 µM (inactive)	2.26 µM (inactive)	1.71 µM (inactive)	1.38 µM (inactive)	1.95 µM (inactive)	1.76 µM (inactive)	1.61 µM (inactive)	3.52 µM (inactive)	2.32 µM (inactive)	1.72 µM (inactive)	2.37 µM (inactive)	3.12 µM (inactive)	3.35 µM (inactive)	–	–	–	–
O=c1ncccn1C1OC(CO)C(O)C1O (stereo unspecified)	> 100 µM (inactive)	> 100 µM (inactive)	> 100 µM (inactive)	> 100 µM (inactive)	> 100 µM (inactive)	> 100 µM (inactive)	> 100 µM (inactive)	> 100 µM (inactive)	> 100 µM (inactive)	> 100 µM (inactive)	–	> 100 µM (inactive)	> 100 µM (inactive)	> 100 µM (inactive)	> 100 µM (inactive)	–	–	–
CC(C)OP(=O)(OC(C)C)/C(=N/Nc1ccccc1[N+](=O)[O-])NCCN/C(=N\Nc1ccccc1[N+](=O)[O-])P(=O)(OC(C)C)OC(C)C	31.8 µM (inactive)	19.2 µM (inactive)	39.1 µM (inactive)	25.6 µM (inactive)	28.2 µM (inactive)	14.5 µM (inactive)	35.5 µM (inactive)	33 µM (inactive)	24.4 µM (inactive)	49.5 µM (inactive)	43.2 µM (inactive)	27.9 µM (inactive)	29.6 µM (inactive)	29.3 µM (inactive)	32 µM (inactive)	–	–	–
[O-][n+]1c2c([n+]([O-])c3ccccc31)CCCCCCCCCC2	77.1 µM (inactive)	> 100 µM (inactive)	> 100 µM (inactive)	> 100 µM (inactive)	> 100 µM (inactive)	> 100 µM (inactive)	> 100 µM (inactive)	> 100 µM (inactive)	14.2 µM (inactive)	–	45.5 µM (inactive)	> 100 µM (inactive)	> 100 µM (inactive)	> 100 µM (inactive)	67.8 µM (inactive)	63.4 µM (inactive)	–	–
NC1=NS(=O)(=O)Nc2nc(-c3ccc(Cl)cc3)[nH]c21	> 100 µM (inactive)	> 100 µM (inactive)	> 100 µM (inactive)	> 100 µM (inactive)	> 100 µM (inactive)	> 100 µM (inactive)	> 100 µM (inactive)	> 100 µM (inactive)	–	> 100 µM (inactive)	> 100 µM (inactive)	> 100 µM (inactive)	> 100 µM (inactive)	> 100 µM (inactive)	88.1 µM (inactive)	> 100 µM (inactive)	–	–
N=C(N)NS(=O)(=O)c1ccc(NC(=O)c2ccc(Cl)c3c(Nc4ccc(S(=O)(=O)N=C(N)N)cc4)c4ccccc4nc23)cc1	38.2 µM (inactive)	37.5 µM (inactive)	–	45.4 µM (inactive)	85.1 µM (inactive)	> 100 µM (inactive)	56.2 µM (inactive)	> 100 µM (inactive)	–	> 100 µM (inactive)	> 100 µM (inactive)	–	76.7 µM (inactive)	83.9 µM (inactive)	28.2 µM (inactive)	–	–	–
Cc1cn(C2OC(C)(CO)C(O)C2O)c(=O)[nH]c1=O (stereo unspecified)	> 100 µM (inactive)	> 100 µM (inactive)	> 100 µM (inactive)	> 100 µM (inactive)	> 100 µM (inactive)	> 100 µM (inactive)	> 100 µM (inactive)	> 100 µM (inactive)	–	> 100 µM (inactive)	> 100 µM (inactive)	> 100 µM (inactive)	> 100 µM (inactive)	> 100 µM (inactive)	> 100 µM (inactive)	> 100 µM (inactive)	–	–
CN(C)C(=O)C(F)(F)C(c1ccc(C(F)(F)F)cc1)C1C(=O)N(C)C(=O)N(C)C1=O (stereo unspecified)	–	> 100 µM (inactive)	> 100 µM (inactive)	> 100 µM (inactive)	> 100 µM (inactive)	> 100 µM (inactive)	> 100 µM (inactive)	> 100 µM (inactive)	> 100 µM (inactive)	> 100 µM (inactive)	–	> 100 µM (inactive)	> 100 µM (inactive)	> 100 µM (inactive)	> 100 µM (inactive)	–	> 100 µM (inactive)	> 100 µM (inactive)
C[C@H]1CC(=O)C2=CCCC3(SCCCS3)[C@@H]2[C@H]1CO	> 100 µM (inactive)	> 100 µM (inactive)	> 100 µM (inactive)	> 100 µM (inactive)	70.8 µM (inactive)	> 100 µM (inactive)	> 100 µM (inactive)	> 100 µM (inactive)	> 100 µM (inactive)	> 100 µM (inactive)	44.9 µM (inactive)	89.5 µM (inactive)	91.4 µM (inactive)	> 100 µM (inactive)	> 100 µM (inactive)	54.3 µM (inactive)	–	–
C=C(NC(=O)C(=C)NC(=O)c1csc(C2=NC3c4csc(n4)C4NC(=O)c5csc(n5)C(C(C)(O)C(C)O)NC(=O)C5CSC(=N5)/C(=C/C)NC(=O)C(C(C)O)NC(=O)c5csc(n5)C3(CC2)NC(=O)C(C)NC(=O)C(=C)NC(=O)C(C)NC(=O)C(C(C)CC)NC2C=Cc3c(C(C)O)cc(nc3C2O)C(=O)OC4C)n1)C(N)=O (stereo unspecified)	0.287 µM (active)	1.24 µM (inactive)	2.75 µM (inactive)	2.92 µM (inactive)	0.644 µM (active)	2.79 µM (inactive)	0.412 µM (active)	1.54 µM (inactive)	1.9 µM (inactive)	1.74 µM (inactive)	–	0.51 µM (active)	1.57 µM (inactive)	> 78.3 µM (inactive)	1.7 µM (inactive)	0.302 µM (active)	–	–
c1ccc(CNn2nnc3ccccc32)cc1	> 100 µM (inactive)	> 100 µM (inactive)	> 100 µM (inactive)	> 100 µM (inactive)	> 100 µM (inactive)	> 100 µM (inactive)	> 100 µM (inactive)	> 100 µM (inactive)	–	–	> 100 µM (inactive)	–	–	> 100 µM (inactive)	> 100 µM (inactive)	–	–	–
COc1ccc([C@@H]2CC(=O)NCCCNCCCCNCCCN2)cc1	30.8 µM (inactive)	> 100 µM (inactive)	> 100 µM (inactive)	> 100 µM (inactive)	> 100 µM (inactive)	> 100 µM (inactive)	> 100 µM (inactive)	> 100 µM (inactive)	79.6 µM (inactive)	> 100 µM (inactive)	> 100 µM (inactive)	> 100 µM (inactive)	> 100 µM (inactive)	> 100 µM (inactive)	> 100 µM (inactive)	> 100 µM (inactive)	–	–
O=C1C2c3[nH]c4ccccc4c3C3CCCCC3C2C(=O)N1c1ccccc1 (stereo unspecified)	–	> 100 µM (inactive)	46.5 µM (inactive)	–	> 100 µM (inactive)	> 100 µM (inactive)	> 100 µM (inactive)	34.2 µM (inactive)	> 100 µM (inactive)	36.2 µM (inactive)	64.7 µM (inactive)	–	> 100 µM (inactive)	> 100 µM (inactive)	–	> 100 µM (inactive)	–	–
CC(=O)O[C@]12CCCC1C1(O)C(O)CCCC12 (stereo partly specified)	> 100 µM (inactive)	> 100 µM (inactive)	> 100 µM (inactive)	–	> 100 µM (inactive)	> 100 µM (inactive)	> 100 µM (inactive)	> 100 µM (inactive)	> 100 µM (inactive)	–	> 100 µM (inactive)	> 100 µM (inactive)	> 100 µM (inactive)	> 100 µM (inactive)	–	> 100 µM (inactive)	–	–
O=P1(Oc2ccccc2)C(c2ccccc2)C(c2ccccc2)=NN1c1ccccc1 (stereo unspecified)	19 µM (inactive)	18.2 µM (inactive)	38.7 µM (inactive)	23.9 µM (inactive)	–	22.8 µM (inactive)	21.5 µM (inactive)	33.7 µM (inactive)	23.5 µM (inactive)	29.6 µM (inactive)	22 µM (inactive)	17.2 µM (inactive)	18 µM (inactive)	–	–	–	–	–
O=Cc1ccccc1COC(=O)c1cc(C(=O)OCc2ccccc2C=O)c(C(=O)OCc2ccccc2C=O)cc1C(=O)OCc1ccccc1C=O	> 100 µM (inactive)	> 100 µM (inactive)	61.9 µM (inactive)	> 100 µM (inactive)	43.7 µM (inactive)	> 100 µM (inactive)	> 100 µM (inactive)	23.6 µM (inactive)	> 100 µM (inactive)	> 100 µM (inactive)	30.3 µM (inactive)	31.9 µM (inactive)	47.1 µM (inactive)	> 100 µM (inactive)	31.6 µM (inactive)	29.5 µM (inactive)	–	–
Cc1c(C)c([N+](=O)[O-])c2c(c1N)C(=O)c1ccccc1C2=O	61.7 µM (inactive)	> 100 µM (inactive)	> 100 µM (inactive)	–	> 100 µM (inactive)	> 100 µM (inactive)	> 100 µM (inactive)	65.5 µM (inactive)	> 100 µM (inactive)	> 100 µM (inactive)	> 100 µM (inactive)	> 100 µM (inactive)	> 100 µM (inactive)	> 100 µM (inactive)	> 100 µM (inactive)	> 100 µM (inactive)	–	–
O=c1c2c(c1=O)-c1ccccc1CN2	> 100 µM (inactive)	> 100 µM (inactive)	> 100 µM (inactive)	> 100 µM (inactive)	> 100 µM (inactive)	> 100 µM (inactive)	> 100 µM (inactive)	> 100 µM (inactive)	> 100 µM (inactive)	> 100 µM (inactive)	> 100 µM (inactive)	> 100 µM (inactive)	> 100 µM (inactive)	> 100 µM (inactive)	> 100 µM (inactive)	–	–	–
